ChEMBL document CHEMBL4732252, “Generating Selective Leads for Mer Kinase Inhibitors-Example of a Comprehensive Lead-Generation Strategy” (J Med Chem, 2021)

Columns and labels:
[1] = Intrinsic clearance in human liver microsomes; type: ADME, Microsome; details: read-out: CLH
[2] = target: T1, Receptor-type tyrosine-protein kinase FLT3 (Homo sapiens, UniProt P36888); assay: Inhibition of His6/TEV fused-GST-tagged Flt3 (unknown origin) (H564 to S993 residues) using Axltide (CKKSRGDYMTMQJ-acid) peptide as substrate preincubated for 30 mins followed by substrate and ATP addition at Km concentration measured after 75 mins by RapidFire LC-MS analysis
T1 sequence (P36888 whole entry): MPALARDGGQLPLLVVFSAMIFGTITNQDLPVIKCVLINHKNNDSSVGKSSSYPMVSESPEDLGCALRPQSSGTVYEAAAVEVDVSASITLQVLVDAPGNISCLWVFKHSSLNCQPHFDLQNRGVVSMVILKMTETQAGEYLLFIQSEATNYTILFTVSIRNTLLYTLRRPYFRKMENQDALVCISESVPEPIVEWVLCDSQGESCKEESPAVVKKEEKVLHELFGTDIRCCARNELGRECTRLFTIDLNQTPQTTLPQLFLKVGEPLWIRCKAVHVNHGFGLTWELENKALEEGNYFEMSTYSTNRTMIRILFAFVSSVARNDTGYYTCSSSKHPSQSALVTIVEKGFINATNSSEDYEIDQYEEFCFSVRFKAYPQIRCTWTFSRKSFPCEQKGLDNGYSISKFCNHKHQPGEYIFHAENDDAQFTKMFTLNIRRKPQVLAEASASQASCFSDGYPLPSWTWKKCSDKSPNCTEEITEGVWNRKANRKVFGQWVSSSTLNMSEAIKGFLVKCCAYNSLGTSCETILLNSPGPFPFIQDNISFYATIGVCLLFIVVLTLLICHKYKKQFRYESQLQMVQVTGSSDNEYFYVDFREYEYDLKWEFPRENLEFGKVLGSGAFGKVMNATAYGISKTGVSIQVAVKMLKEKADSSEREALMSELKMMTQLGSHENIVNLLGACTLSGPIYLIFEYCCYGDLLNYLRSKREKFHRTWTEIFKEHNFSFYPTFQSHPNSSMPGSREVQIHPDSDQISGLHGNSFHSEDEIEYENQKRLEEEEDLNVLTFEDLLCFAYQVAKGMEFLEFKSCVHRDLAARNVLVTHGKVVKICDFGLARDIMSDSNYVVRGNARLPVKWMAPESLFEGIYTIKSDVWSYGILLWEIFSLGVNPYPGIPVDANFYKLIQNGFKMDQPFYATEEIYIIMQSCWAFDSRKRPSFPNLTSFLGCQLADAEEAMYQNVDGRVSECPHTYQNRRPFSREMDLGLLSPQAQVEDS

[3] = target: T2, Tyrosine-protein kinase receptor TYRO3 (Homo sapiens, UniProt Q06418); assay: Inhibition of GST-tagged Tyro3 (unknown origin) (453 to 890 residues) using Axltide (KKSRGDYMTMQIG-acid) peptide as substrate preincubated for 30 mins followed by substrate and ATP addition at Km concentration measured after 180 mins by RapidFire LC-MS analysis
T2 sequence (Q06418 whole entry): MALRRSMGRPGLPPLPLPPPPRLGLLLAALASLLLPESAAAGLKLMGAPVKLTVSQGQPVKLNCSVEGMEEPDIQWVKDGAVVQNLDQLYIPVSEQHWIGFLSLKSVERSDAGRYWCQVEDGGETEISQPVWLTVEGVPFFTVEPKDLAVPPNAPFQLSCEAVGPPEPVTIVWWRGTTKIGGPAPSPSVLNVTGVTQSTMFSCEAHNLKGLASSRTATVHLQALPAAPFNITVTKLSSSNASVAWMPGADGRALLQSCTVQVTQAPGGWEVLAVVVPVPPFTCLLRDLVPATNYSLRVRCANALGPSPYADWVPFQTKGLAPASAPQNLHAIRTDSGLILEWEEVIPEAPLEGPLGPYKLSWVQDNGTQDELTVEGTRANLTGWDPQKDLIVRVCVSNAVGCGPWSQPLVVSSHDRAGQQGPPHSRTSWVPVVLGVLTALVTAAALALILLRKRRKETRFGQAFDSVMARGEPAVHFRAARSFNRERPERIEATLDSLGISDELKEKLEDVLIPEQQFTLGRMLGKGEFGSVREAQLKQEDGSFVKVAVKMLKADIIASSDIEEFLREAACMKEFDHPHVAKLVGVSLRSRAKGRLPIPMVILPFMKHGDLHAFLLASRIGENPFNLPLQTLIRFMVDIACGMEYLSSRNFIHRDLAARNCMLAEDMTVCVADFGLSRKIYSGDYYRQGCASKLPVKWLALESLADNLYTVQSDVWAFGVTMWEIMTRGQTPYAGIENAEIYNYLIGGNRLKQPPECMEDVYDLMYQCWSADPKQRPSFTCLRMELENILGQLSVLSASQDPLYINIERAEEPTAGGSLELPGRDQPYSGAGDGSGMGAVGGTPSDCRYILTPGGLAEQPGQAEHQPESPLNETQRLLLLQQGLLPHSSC

[4] = Intrinsic clearance in rat hepatocytes assessed per 10^6 cells; type: ADME, cell-based, Hepatocyte; details: read-out: CLH

Row | Structure (SMILES) | microsomal CLint [1] [µL/min/mg] | IC50 [2] [µM] | IC50 [3] [µM] | hepatocyte CLint [4] [µL/min/1e6 cells]
1 | Cc1cc(N(C)C)ccc1-c1nnc(N(C)Cc2ccc3nccn3c2)o1 | 55 | 31.6 | > 100 | 44
2 | CNC(=O)c1sc(N2CC3CC2(CNC(=O)c2c[nH]c4ncc(C(F)(F)F)cc24)C3)nc1C(F)(F)F | 130 | > 100 | > 100 | 78
3 | Cc1c(C(=O)Nc2ccc(Oc3ccnc4[nH]cc(-c5ccccc5)c34)c(F)c2)c(=O)n(-c2ccc(F)cc2)n1C | 16 | 0.0631 | 0.01 | 210
4 | CNC(=O)C[C@@H](NC(=O)[C@@H](CCc1ccccc1)NC(=O)c1c(C)noc1-c1snnc1C)c1ccc(C(F)(F)F)cc1 | > 300 | > 100 | 0.0316 | 260
5 | CN(Cc1ccc2c(c1)CCCO2)c1nnc(-c2ccc(-c3ccccc3Cl)cc2)o1 | 19 | > 100 | > 100 | 19
6 | CN(Cc1ccc2nccn2c1)c1nnc(-c2ccc(-c3ccccc3Cl)cc2)o1 | 46 | 15.8 | 10 | 21
7 | CN(Cc1ccc2nccn2c1)c1nnc(-c2ccc(-c3ccccc3Cl)nc2)o1 | 92 | 15.8 | 20 | 16
8 | CNC(=O)c1sc(N2CC3CC2(CNC(=O)c2c[nH]c4ncccc24)C3)nc1C(F)(F)F | 200 | 5.01 | 2 | 33

Continued, values first:

Row | microsomal CLint [1] [µL/min/mg] | IC50 [2] [µM] | IC50 [3] [µM] | hepatocyte CLint [4] [µL/min/1e6 cells] | Structure (SMILES)
9 | 11 | > 100 | > 100 | 6 | CN(Cc1ccc2nccn2c1)c1nnc(-c2ncc(C(F)(F)F)cc2Cl)o1
10 | 150 | 20 | 79.4 | 52 | CN(Cc1ccc2nccn2c1)c1nnc(-c2ccc(OC3CCCC3)cc2)o1
11 | > 300 | 1.58 | 0.631 | 120 | CNC(=O)c1sc(N2CC3CC2(CNC(=O)c2c[nH]c4ncc(Cl)cc24)C3)nc1C(F)(F)F
12 | 190 | > 39.8 | 6.31 | 88 | O=S(=O)(c1ccc(Nc2ncc(N3CCOCC3)c(Nc3ccccc3)n2)cc1)N1CCCCC1
13 | > 270 | 1.58 | 1 | 92 | CNC(=O)c1sc(N2CC3CC2(CNC(=O)c2c[nH]c4ncc(C)cc24)C3)nc1C(F)(F)F
14 | 55 | 6.31 | 39.8 | 22 | CCn1c(-c2nnc(N(C)Cc3ccc4nccn4c3)o2)nc2ccccc21
15 | > 270 | > 50.1 | 3.16 | 160 | CNc1nc(OCC2CCC2)nc2c1ncn2Cc1c(F)cccc1F
16 | < 3 | 10 | 0.251 | < 2.4 | C[C@@H]1CN(c2cnc(Nc3cc(F)c(OCC4CC4)c(F)c3)nc2NC2CCOCC2)CCN1
17 | < 3 | > 50.1 | 2 | 3 | COc1cc2ncnc(Nc3cnc(OCCC4CC4)nc3)c2cc1OCC1CCNCC1
